Laboratory results from US11033641B2, “Radiolabelled mGluR2/3 pet ligands” (Janssen Pharmaceutica NV, priority 2015, dated 2021).

Assays:
[1] = molecular target: T1, human mGlu2 (Homo sapiens, UniProt Q14416); assay: [3H]-compound A displacement binding, human mGlu2 HEK293 membranes; settings: Glu2 HEK293, 6 nM [3H]-compound A
T1 construct: expressed in transfected cells; host or cells: HEK293
Description: (§1) For [^3H]-compound A (a NAM compound, selective for mGlu2/3 (˜20 fold selective for 2 over 3) vs other mGluRs) binding, membranes from human mGlu2 and mGlu3 HEK293 cells, and also rat cortical membranes, were used. After thawing, membranes were homogenized using an Ultra Turrax homogenizer and suspended in ice-cold binding buffer containing 50 mM Tris-HCl (pH 7.4), 10 mM MgCl2, 2 mM CaCl2. Displacement studies were done using 6 nM of radioligand, except for human mGlu3 membranes where 25 nM was used. Assay mixtures were incubated for 60 min at RT in a volume of 0.5 ml containing […] or 75 μg membrane protein of human mGlu2, human mGlu3 or rat cortex, respectively. Non-specific binding was estimated in the presence of […] compound B (a NAM with IC50˜10 nM against hmGlu2 and IC50˜200 nM against hmGlu3). Filtration was performed using Whatman GF/C filter sheets pre-soaked in 0.1% PEI and a Brandell harvester 96.
(§2) Filters from filters sheets were punched into vials. After the addition of scintillation liquid, radioactivity on the filters was counted in a Liquid Scintillation Analyzer from Perkin Elmer.
(§3) Radioligand competition binding data were calculated as percentage of total binding measured in the absence of test compound. Inhibition curves, plotting percentage of total binding versus the log concentration of the test compound, were generated using the Lexis software. Sigmoid inhibition curves were analyzed using non-linear regression analysis.

[2] = molecular target: T2, human mGlu3 (Homo sapiens, UniProt Q14832); assay: [3H]-compound A displacement binding, human mGlu3 HEK293 membranes; settings: Glu3 HEK293, 25 nM [3H]-compound A
T2 construct: expressed in transfected cells; host or cells: HEK293
Description: as §1, §2, §3

[3] = test system: Glu2-3 rat cortex; assay: [3H]-compound A displacement binding, rat cortical membranes; settings: 6 nM [3H]-compound A
Description: as §1, §2
Radioligand competition binding data were calculated as percentage of total binding measured in the absence of test compound. […] Sigmoid inhibition curves were analyzed using non-linear regression analysis.

[4] = test system: mGluR2/3; assay: microPET scan, baseline and after compound A pretreatment; format: in vivo; settings: SD rats
Description: Data were acquired in a 128×128×95 matrix with a pixel width of 0.475 mm and a slice thickness of 0.796 mm. During PET imaging, rats were kept under gas anesthesia (2.5% isoflurane in oxygen at a flow rate of 1 l/min), and their body temperature was maintained between 36.5 and 37° C. using a heating pad. PET data were analyzed using Pmod software version 3.2 (Pmod, Zurich Switzerland).
Sprague-Dawley rats obtained from Harlan (the Netherlands), were housed in groups of four to six per cage until treatment. They were kept at a constant temperature of 21° C. and at a 12-h light/dark cycle, in which lights were switched on at 8:00 a.m. Animals had unrestricted access to food (Teklad Global 16% Protein Rodent Diet, Harlan, Madison, Wis., USA) and water. All animal experiments were performed in compliance with Belgium laws on animal experimentation and after approval by the local animal ethics committee.
All pretreatment solutions were 1 mg/mL solutions in 20% β-cyclodextrine in saline with a pH ranging between 6 and 8, and sterile filtered over a Millex GV filter prior to use.
For the baseline scan, 36-43 MBq of [^18F]-1 was injected in 3 SD rats weighing 229-251 g in the tail vein, and scanned simultaneously during a 90 min dynamic PET scan. For the pretreatment scan using compound A (a NAM compound, selective for mGlu2/3 (˜20 fold selective for 2 over 3) vs other mGluRs), the same animals were injected with 10 mg/kg compound A s.c. 60 minutes prior to injection of 38-37 MBq [^18F]-1 in the tail vein, and scanned simultaneously during a 90 minutes dynamic PET scan.
For the baseline scan, 39-49 MBq of [^18F]-2 was injected in 3 SD rats weighing 301-310 g in a tail vein, and scanned simultaneously during a 90-min dynamic PET scan. For the pretreatment scan using compound A, the same animals were injected with 10 mg/kg compound A s.c. 60 min prior to injection of 46-50 MBq [^18F]-2 in the tail vein, and scanned simultaneously during a 90 min dynamic PET scan.

T1 sequence (Q14416 19-872): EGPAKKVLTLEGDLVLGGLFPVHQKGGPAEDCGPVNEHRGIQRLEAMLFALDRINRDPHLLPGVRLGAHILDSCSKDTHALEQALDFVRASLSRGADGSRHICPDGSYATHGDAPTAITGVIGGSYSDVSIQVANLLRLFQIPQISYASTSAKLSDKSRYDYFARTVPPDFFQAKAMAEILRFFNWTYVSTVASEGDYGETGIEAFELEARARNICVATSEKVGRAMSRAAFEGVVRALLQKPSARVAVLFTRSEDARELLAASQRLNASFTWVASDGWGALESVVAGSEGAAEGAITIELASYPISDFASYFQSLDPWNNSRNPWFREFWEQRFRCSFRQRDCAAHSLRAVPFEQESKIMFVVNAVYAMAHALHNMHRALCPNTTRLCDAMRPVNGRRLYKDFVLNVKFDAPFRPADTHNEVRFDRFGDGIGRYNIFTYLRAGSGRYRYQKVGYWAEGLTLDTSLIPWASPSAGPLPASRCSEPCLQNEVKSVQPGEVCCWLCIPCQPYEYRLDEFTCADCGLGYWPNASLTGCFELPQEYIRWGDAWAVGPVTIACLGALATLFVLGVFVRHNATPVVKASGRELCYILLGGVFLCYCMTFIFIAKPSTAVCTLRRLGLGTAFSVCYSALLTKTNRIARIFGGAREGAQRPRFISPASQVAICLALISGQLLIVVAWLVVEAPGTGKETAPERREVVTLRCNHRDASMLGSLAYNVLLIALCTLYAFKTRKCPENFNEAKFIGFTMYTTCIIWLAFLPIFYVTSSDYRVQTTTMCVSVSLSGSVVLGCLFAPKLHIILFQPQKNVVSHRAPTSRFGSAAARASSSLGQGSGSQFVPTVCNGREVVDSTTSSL
T2 sequence (Q14832 23-879): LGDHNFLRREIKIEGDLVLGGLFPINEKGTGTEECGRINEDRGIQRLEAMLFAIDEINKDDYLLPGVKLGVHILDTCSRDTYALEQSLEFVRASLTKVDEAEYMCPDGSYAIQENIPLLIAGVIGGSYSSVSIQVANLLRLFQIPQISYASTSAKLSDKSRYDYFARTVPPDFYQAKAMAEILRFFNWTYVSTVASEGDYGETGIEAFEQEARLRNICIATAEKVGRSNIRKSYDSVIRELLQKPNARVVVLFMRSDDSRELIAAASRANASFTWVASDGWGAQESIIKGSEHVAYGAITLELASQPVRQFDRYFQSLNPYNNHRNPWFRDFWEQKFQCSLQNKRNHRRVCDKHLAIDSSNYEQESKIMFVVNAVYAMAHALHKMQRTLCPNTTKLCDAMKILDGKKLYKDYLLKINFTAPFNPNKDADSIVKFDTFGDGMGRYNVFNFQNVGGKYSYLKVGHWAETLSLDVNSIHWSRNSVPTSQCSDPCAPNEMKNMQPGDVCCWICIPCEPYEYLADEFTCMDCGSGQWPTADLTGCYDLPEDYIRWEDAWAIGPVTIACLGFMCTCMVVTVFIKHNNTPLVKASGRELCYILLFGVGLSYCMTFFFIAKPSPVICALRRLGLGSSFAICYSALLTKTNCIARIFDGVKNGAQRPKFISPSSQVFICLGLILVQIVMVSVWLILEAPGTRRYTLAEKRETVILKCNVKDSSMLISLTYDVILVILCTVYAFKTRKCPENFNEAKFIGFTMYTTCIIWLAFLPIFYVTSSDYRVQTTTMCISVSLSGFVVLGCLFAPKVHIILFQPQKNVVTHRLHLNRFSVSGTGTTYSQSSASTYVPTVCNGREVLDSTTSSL

Eff Curve [1]: 93 | IC50 [1]: 2.75 nM | Eff Curve [2]: 104 | IC50 [2]: 7.24 nM | Eff Curve [3]: 95 | pIC50 [3]: 8.78 | Brain uptake in PET scan, in words ([4]; 90 min dynamic PET scan): high brain uptake
Compound: C[C@H]1CN(c2ccc(C(F)(F)F)cc2)C(=O)c2c(C#Cc3cnc(N)cc3C[18F])cnn21 [Compound 1]
Brain uptake after pretreatment with compound A ([4]; 10 mg/kg compound A s.c. 60 min before tracer): uptake was reduced after pretreatment with compound A | mGluR2/3 specificity of binding in vivo ([4]; PET, baseline vs compound A pretreatment): good mGluR2/3 specificity
